Here are results for 6 compounds from patent US10604512B2, “3-(1H-indol-2-yl)-1H-indazoles and therapeutic uses thereof” (Samumed, LLC, priority 2015, dated 2020).

Each structure is given as a SMILES string.

One experiment relates to SW480 colon cancer cells. Kind of experiment: Cell viability assay (CellTiter-Blue) in SW480 colon cancer cells. As to conditions: Homo sapiens, 96 h, four days; for inhibition at 10 µM: given where EC50 >10 μM, read-out: percent inhibition at 10 μM; for EC50: CellTiter-Blue. Type of experiment: cell-based. The procedure, abridged: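 SW480 colon cancer cells (~2×10^3/well) exposed to 8-point 1:3 dilutions from 10 μM to 0.0045 μM for four days at 37 °C/5% CO2. Viability read by resazurin (CellTiter-Blue) fluorescence after ~3 h, Ex 560/Em 590 nm. EC50 from non-linear regression; percent inhibition at 10 μM given when EC50 >10 μM.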

Experiment [1] relates to Primary human fibroblasts derived from IPF patients (LL29 cells) treated with TGF-β1. Kind of experiment: Inhibition of the fibrotic process: αSMA staining in TGF-β1-treated primary human fibroblasts from IPF patients (LL29 cells). Type of experiment: cell-based. As to conditions: Fibroblast, 96 h; for EC50: % αSMA-positive LL29 cells, TGF-β1 20 ng/mL, 4 days. The gist of the method:
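LL29 IPF-patient fibroblasts in 1% FBS stimulated with TGF-β1 (20 ng/mL) and compound (10 μM–1.87 nM, 0.1% DMSO) for 4 days at 37 °C. SYTOX-positive cells excluded; % αSMA-positive cells imaged, normalized to TGF-β1/DMSO wells; EC50 by nonlinear regression, else % inhibition at 10 μM.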

For the compound `Fc1cccc(-c2cccc3[nH]c(-c4n[nH]c5ccc(-c6ccncc6)cc45)cc23)c1` [Compound 18, 3-(4-(3-Fluorophenyl)-1H-indol-2-yl)-5-(pyridin-4-yl)-1H-indazole], in the experiment with SW480 colon cancer cells, the inhibition at 10 µM was 10.2% and the concentration giving a half-maximal response (EC50) was over 10 µM. In experiment [1], this compound gave a concentration giving a half-maximal response (EC50) of 5.55 µM.
On to `O=C(Cc1ccccc1)Nc1cncc(-c2ccc3[nH]nc(-c4cc5c(-c6ccoc6)cccc5[nH]4)c3c2)c1` [Compound 318, N-(5-(3-(4-(Furan-3-yl)-1H-indol-2-yl)-1H-indazol-5-yl)pyridin-3-yl)-2-phenylacetamide], for which, in the experiment on SW480 colon cancer cells, the inhibition at 10 µM was 31.9% and the concentration giving a half-maximal response (EC50) is over 10 µM. Further, the EC50 in experiment [1] stood at 0.844 µM.
Turning to `CC(C)(C)CC(=O)Nc1cncc(-c2ccc3[nH]nc(-c4cc5c(-c6ccsc6)cccc5[nH]4)c3c2)c1` [Compound 296, 3,3-Dimethyl-N-(5-(3-(4-(thiophen-3-yl)-1H-indol-2-yl)-1H-indazol-5-yl)pyridin-3-yl)butanamide], the EC50 in the experiment on SW480 colon cancer cells was 0.97 µM; in experiment [1] it was over 10 µM. Moreover, in experiment [1] (at 10 μM, given where EC50 >10 μM, αSMA, LL29 cells, TGF-β1, 4 days, read-out: percent inhibition at 10 μM), the inhibition at 10 µM is 21%.
With `c1cc(-c2ccoc2)c2cc(-c3n[nH]c4ccc(-c5cncc(CNCC6CCCC6)c5)cc34)[nH]c2c1` [Compound 333, 1-Cyclopentyl-N-((5-(3-(4-(furan-3-yl)-1H-indol-2-yl)-1H-indazol-5-yl)pyridin-3-yl)methyl)methanamine], the inhibition at 10 µM in the experiment on SW480 colon cancer cells was found to be 19.1%. Also, the values for the 50% effective concentration (EC50) (with SW480 colon cancer cells; in experiment [1]) were over 10 µM and 3.74 µM, respectively.
Regarding `Nc1cncc(-c2ccc3[nH]nc(-c4cc5c(-c6ccoc6)cccc5[nH]4)c3c2)c1` [Compound 311, 5-(3-(4-(Furan-3-yl)-1H-indol-2-yl)-1H-indazol-5-yl)pyridin-3-amine], the EC50 with SW480 colon cancer cells is 0.294 µM; in experiment [1] it was 5.04 µM.
In the case of `O=C(Nc1cncc(-c2ccc3[nH]nc(-c4cc5c(-c6ccsc6)cccc5[nH]4)c3c2)c1)C1CCCCC1` [Compound 303, N-(5-(3-(4-(Thiophen-3-yl)-1H-indol-2-yl)-1H-indazol-5-yl)pyridin-3-yl) cyclohexanecarboxamide], in the experiment with SW480 colon cancer cells, the inhibition at 10 µM is 15% and the EC50 is over 10 µM. The compound further showed an EC50 in experiment [1] of 2.79 µM.

For orientation: inhibition means the drop in the measured response relative to a control, in per cent. One may read the EC50 as the midpoint of the concentration-response curve. Low values mean higher potency in that assay, high ones lower potency in that assay.
